Measured values from paper PMC10053710, “Influence of Lipidation Pattern of the KR12 Fragment of Peptide LL-37 on Its Antibacterial and Hemolytic Activities” (International Journal of Molecular Sciences, 2023).
≈ marks a conversion by molar mass, not a printed value. Where a SMILES comes first, the peptide text is derived from it. The star is where a group is joined. Octanoyl = CCCCCCCC(=O)*

Key:
[1] = 18 h
[2] = test system: human red blood cells (hRBCs); experiment: Hemolysis assay; conditions: 4% (v/v) erythrocytes in PBS, peptides 1–512 µg/mL, 1 h at 37 °C, hemoglobin at 540 nm, 100% = 1% Triton-X 100; ≥ means less than 5% hemolysis up to 512 µg/mL
Method: To facilitate a comparison of hemolytic activity between the analogs, MHC5 values were determined. MHC5 is the minimum hemolytic concentration of the compounds that caused the 5% hemolysis of hRBCs.
Briefly, the fresh hRBCs with EDTA as anticoagulant were rinsed three times with PBS through centrifugation at 800× g for 10 min and resuspended in PBS. The serial dilution of peptides (1–512 µg/mL) was prepared in PBS on 96-well plates. Then, the stock RBCs solution was added to the plates to reach a final volume of 100 µL with a 4% concentration of erythrocytes (v/v). The control wells for 0 (RBCs in PBS) and 100% (RBCs in 1% Triton-X 100) hemolysis were also prepared. Then, the plates were incubated for 1 h at 37 °C and centrifuged at 800× g for 10 min at 4 °C (Sorvall ST 16R Centrifuge, Thermo Scientific, Waltham, MA, USA). After centrifugation, the supernatant was carefully transferred to new microtiter plates and the release of hemoglobin was measured at 540 nm (Multiskan™ GO Microplate Spectrophotometer, Thermo Scientific, Waltham, MA, USA). The percentage of hemolysis was calculated based on wells with 100% hemolysis.

[3] = test system: S. aureus ATCC 9144; format: cell-based, Staphylococcus aureus; conditions: ATCC 9144, 18 h
Method: (§1) Tests of the antibacterial activity were carried out as we just described. Briefly, for assays, the following strains of ESKAPE bacteria were chosen: Acinetobacter baumannii ATCC BAA-1605, Enterococcus faecium ATCC 700221, Klebsiella aerogenes ATCC 13048 (formerly Enterobacter aerogenes), Klebsiella pneumoniae ATCC 700603, and Pseudomonas aeruginosa ATCC 9027. Moreover, the reference strains of Staphylococcus aureus were used: S. aureus ATCC 25923, S. aureus ATCC 6538, S. aureus ATCC 33591 (MRSA), S. aureus ATCC 9144, and S. aureus ATCC 12598. Before experiments, all the strains were stored at −80 °C in Roti®-Store cryo vials (Carl Roth GmbH, Karlsruhe, Germany). To evaluate the activity of the compounds, bacteria were transferred into fresh Mueller–Hinton medium (Becton Dickinson, Warszawa, Poland) and incubated for 24 h at 37 °C. In the next step, bacterial inoculums were seeded on Mueller–Hinton agar plates (BioMaxima SA, Lublin, Poland) and incubated again for 24 h. The MIC values were determined using the broth microdilution method according to the Clinical and Laboratory Standards Institute Protocol. The initial inoculums of bacteria (0.5 × 10^5 colony forming units (CFU)/mL) prepared in Mueller–Hinton broth were exposed to the ranging concentrations of peptides (1–512 µg/mL). The experiments were conducted on 96-well microtiter plates, with a final volume of 100 µL. The inoculum densities were checked spectrophotometrically (Multiskan™ GO Microplate Spectrophotometer, Thermo Scientific, Waltham, MA, USA) at 600 nm. The results were read after incubation for 18 h at 37 °C. The MIC values were the lowest concentration at which a visible growth of microorganisms was inhibited. All experiments were conducted in triplicate. Moreover, positive (growth) and negative (sterility) controls were included.

[4] = test system: S. aureus ATCC 12598; format: cell-based, Staphylococcus aureus; conditions: ATCC 12598, 18 h
Method: as §1

[5] = test system: S. aureus ATCC 33591 (MRSA); format: cell-based, Staphylococcus aureus; conditions: ATCC 33591, 18 h
Method: as §1

[6] = test system: S. aureus ATCC 25923; format: cell-based, Staphylococcus aureus; conditions: ATCC 25923, 18 h
Method: as §1

[7] = test system: S. aureus ATCC 6538; format: cell-based, Staphylococcus aureus; conditions: ATCC 6538, 18 h
Method: as §1

[8] = test system: Klebsiella aerogenes ATCC 13048; format: cell-based; conditions: ATCC 13048, 18 h
Method: as §1

[9] = test system: Klebsiella pneumoniae ATCC 700603; format: cell-based; conditions: ATCC 700603, 18 h
Method: as §1

[10] = test system: Enterococcus faecium ATCC 700221; format: cell-based; conditions: ATCC 700221, 18 h
Method: as §1

[11] = test system: Pseudomonas aeruginosa ATCC 9027; format: cell-based; conditions: ATCC 9027, 18 h
Method: as §1

Row | MIC A. baumannii [1] | MIC S. aureus 9144 [3] | MIC S. aureus 12598 [4] | MIC S. aureus 33591 [5] | MIC S. aureus 25923 [6] | MIC S. aureus 6538 [7] | MIC K. aerogenes [8] | MIC K. pneumoniae [9] | MIC E. faecium [10] | MIC P. aeruginosa [11] | Structure (SMILES) | MHC5 (minimum hemolytic concentration causing 5% hemolysis of hRBCs) [2]
1 | 8 µg/mL (≈ 4.71 µM) | 4 µg/mL (≈ 2.36 µM) | 4 µg/mL (≈ 2.36 µM) | 4 µg/mL (≈ 2.36 µM) | 4 µg/mL (≈ 2.36 µM) | 2 µg/mL (≈ 1.18 µM) | 4 µg/mL (≈ 2.36 µM) | 8 µg/mL (≈ 4.71 µM) | 4 µg/mL (≈ 2.36 µM) | 16 µg/mL (≈ 9.43 µM) | CCCCCCCC(=O)N[C@@H](CCCCN)C(=O)N[C@@H](CCCNC(=N)N)C(=O)N[C@H](C(=O)N[C@H](C(=O)N[C@@H](CCC(N)=O)C(=O)N[C@@H](CCCNC(=N)N)C(=O)N[C@H](C(=O)N[C@@H](CCCCN)C(=O)N[C@@H](CC(=O)O)C(=O)N[C@@H](Cc1ccccc1)C(=O)N[C@@H](CC(C)C)C(=O)N[C@@H](CCCNC(=N)N)C(N)=O)[C@@H](C)CC)C(C)C)[C@@H](C)CC [II, C8^α-KR12-NH2] (Octanoyl-KRIVQRIKDFLR-NH2) | 64 µg/mL
2 | 8 µg/mL (≈ 4.38 µM) | 16 µg/mL (≈ 8.77 µM) | 32 µg/mL (≈ 17.5 µM) | 64 µg/mL (≈ 35.1 µM) | 128 µg/mL (≈ 70.1 µM) | 8 µg/mL (≈ 4.38 µM) | 32 µg/mL (≈ 17.5 µM) | 16 µg/mL (≈ 8.77 µM) | 4 µg/mL (≈ 2.19 µM) | 32 µg/mL (≈ 17.5 µM) | CCCCCCCC(=O)N[C@@H](CCCCN)C(=O)N[C@@H](CCCCN)C(=O)N[C@@H](CCCNC(=N)N)C(=O)N[C@H](C(=O)N[C@H](C(=O)N[C@@H](CCC(N)=O)C(=O)N[C@@H](CCCNC(=N)N)C(=O)N[C@H](C(=O)N[C@@H](CCCCN)C(=O)N[C@@H](CC(=O)O)C(=O)N[C@@H](Cc1ccccc1)C(=O)N[C@@H](CC(C)C)C(=O)N[C@@H](CCCNC(=N)N)C(N)=O)[C@@H](C)CC)C(C)C)[C@@H](C)CC [IV, C8^α-Lys-KR12-NH2] (Octanoyl-KKRIVQRIKDFLR-NH2) | 256 µg/mL
3 | 32 µg/mL (≈ 17.5 µM) | 32 µg/mL (≈ 17.5 µM) | 32 µg/mL (≈ 17.5 µM) | 64 µg/mL (≈ 35.1 µM) | 64 µg/mL (≈ 35.1 µM) | 8 µg/mL (≈ 4.38 µM) | 64 µg/mL (≈ 35.1 µM) | 16 µg/mL (≈ 8.77 µM) | 4 µg/mL (≈ 2.19 µM) | 16 µg/mL (≈ 8.77 µM) | CCCCCCCC(=O)NCCCC[C@H](N)C(=O)N[C@@H](CCCCN)C(=O)N[C@@H](CCCNC(=N)N)C(=O)N[C@H](C(=O)N[C@H](C(=O)N[C@@H](CCC(N)=O)C(=O)N[C@@H](CCCNC(=N)N)C(=O)N[C@H](C(=O)N[C@@H](CCCCN)C(=O)N[C@@H](CC(=O)O)C(=O)N[C@@H](Cc1ccccc1)C(=O)N[C@@H](CC(C)C)C(=O)N[C@@H](CCCNC(=N)N)C(N)=O)[C@@H](C)CC)C(C)C)[C@@H](C)CC [V, C8^ε-Lys-KR12-NH2] (H-K(Octanoyl)KRIVQRIKDFLR-NH2) | 256 µg/mL
4 | 16 µg/mL (≈ 8.77 µM) | 32 µg/mL (≈ 17.5 µM) | 32 µg/mL (≈ 17.5 µM) | 32 µg/mL (≈ 17.5 µM) | 64 µg/mL (≈ 35.1 µM) | 64 µg/mL (≈ 35.1 µM) | 64 µg/mL (≈ 35.1 µM) | 32 µg/mL (≈ 17.5 µM) | 4 µg/mL (≈ 2.19 µM) | 32 µg/mL (≈ 17.5 µM) | CCCCCCCC(=O)NCCCC[C@H](NC(=O)[C@H](CCCNC(=N)N)NC(=O)[C@H](CC(C)C)NC(=O)[C@H](Cc1ccccc1)NC(=O)[C@H](CC(=O)O)NC(=O)[C@H](CCCCN)NC(=O)[C@@H](NC(=O)[C@H](CCCNC(=N)N)NC(=O)[C@H](CCC(N)=O)NC(=O)[C@@H](NC(=O)[C@@H](NC(=O)[C@H](CCCNC(=N)N)NC(=O)[C@@H](N)CCCCN)[C@@H](C)CC)C(C)C)[C@@H](C)CC)C(N)=O [VI, KR12-Lys^ε(C8)-NH2] (H-KRIVQRIKDFLRK(Octanoyl)-NH2) | 

Second part, the compound before the results:

Row | Structure (SMILES) | MIC A. baumannii [1] | MIC S. aureus 9144 [3] | MIC S. aureus 12598 [4] | MIC S. aureus 33591 [5] | MIC S. aureus 25923 [6] | MIC S. aureus 6538 [7] | MIC K. aerogenes [8] | MIC K. pneumoniae [9] | MIC E. faecium [10] | MIC P. aeruginosa [11] | MHC5 (minimum hemolytic concentration causing 5% hemolysis of hRBCs) [2]
5 | CCCCCCCC(=O)NCCCC[C@H](N)C(=O)N[C@@H](CCCNC(=N)N)C(=O)N[C@H](C(=O)N[C@H](C(=O)N[C@@H](CCC(N)=O)C(=O)N[C@@H](CCCNC(=N)N)C(=O)N[C@H](C(=O)N[C@@H](CCCCN)C(=O)N[C@@H](CC(=O)O)C(=O)N[C@@H](Cc1ccccc1)C(=O)N[C@@H](CC(C)C)C(=O)N[C@@H](CCCNC(=N)N)C(N)=O)[C@@H](C)CC)C(C)C)[C@@H](C)CC [III, C8^ε-KR12-NH2] (H-K(Octanoyl)RIVQRIKDFLR-NH2) | 32 µg/mL (≈ 18.9 µM) | 32 µg/mL (≈ 18.9 µM) | 64 µg/mL (≈ 37.7 µM) | 64 µg/mL (≈ 37.7 µM) | 32 µg/mL (≈ 18.9 µM) | 8 µg/mL (≈ 4.71 µM) | 64 µg/mL (≈ 37.7 µM) | 32 µg/mL (≈ 18.9 µM) | 4 µg/mL (≈ 2.36 µM) | 64 µg/mL (≈ 37.7 µM) | 
6 | CCCCCCCC(=O)NCCCC[C@H](NC(=O)CCCCCCC)C(=O)N[C@@H](CCCNC(=N)N)C(=O)N[C@H](C(=O)N[C@H](C(=O)N[C@@H](CCC(N)=O)C(=O)N[C@@H](CCCNC(=N)N)C(=O)N[C@H](C(=O)N[C@@H](CCCCN)C(=O)N[C@@H](CC(=O)O)C(=O)N[C@@H](Cc1ccccc1)C(=O)N[C@@H](CC(C)C)C(=O)N[C@@H](CCCNC(=N)N)C(N)=O)[C@@H](C)CC)C(C)C)[C@@H](C)CC [IX, C8^α,C8^ε-KR12-NH2] (Octanoyl-K(Octanoyl)RIVQRIKDFLR-NH2) | 512 µg/mL (≈ 281 µM) | 256 µg/mL (≈ 140 µM) | 256 µg/mL (≈ 140 µM) | 256 µg/mL (≈ 140 µM) | 512 µg/mL (≈ 281 µM) |  | 512 µg/mL (≈ 281 µM) | >512 µg/mL | 16 µg/mL (≈ 8.78 µM) | >512 µg/mL | 
7 | CCCCCCCC(=O)NCCCC[C@H](NC(=O)[C@H](CC(C)C)NC(=O)[C@H](Cc1ccccc1)NC(=O)[C@H](CC(=O)O)NC(=O)[C@H](CCCCN)NC(=O)[C@@H](NC(=O)[C@H](CCCNC(=N)N)NC(=O)[C@H](CCC(N)=O)NC(=O)[C@@H](NC(=O)[C@@H](NC(=O)[C@H](CCCNC(=N)N)NC(=O)[C@@H](N)CCCCN)[C@@H](C)CC)C(C)C)[C@@H](C)CC)C(N)=O [VII, [Lys^ε(C8)]^12KR12-NH2] (H-KRIVQRIKDFLK(Octanoyl)-NH2) | 32 µg/mL (≈ 19.2 µM) | 512 µg/mL (≈ 307 µM) | 512 µg/mL (≈ 307 µM) | 512 µg/mL (≈ 307 µM) | 128 µg/mL (≈ 76.7 µM) | 64 µg/mL (≈ 38.3 µM) | 64 µg/mL (≈ 38.3 µM) | 128 µg/mL (≈ 76.7 µM) | 16 µg/mL (≈ 9.59 µM) | 64 µg/mL (≈ 38.3 µM) | 
8 | CCCCCCCC(=O)NCCCC[C@H](NC(=O)[C@@H](NC(=O)[C@H](CCCNC(=N)N)NC(=O)[C@H](CCC(N)=O)NC(=O)[C@@H](NC(=O)[C@@H](NC(=O)[C@H](CCCNC(=N)N)NC(=O)[C@@H](N)CCCCN)[C@@H](C)CC)C(C)C)[C@@H](C)CC)C(=O)N[C@@H](CC(=O)O)C(=O)N[C@@H](Cc1ccccc1)C(=O)N[C@@H](CC(C)C)C(=O)N[C@@H](CCCNC(=N)N)C(N)=O [VIII, [Lys^ε(C8)]^8KR12-NH2] (H-KRIVQRIK(Octanoyl)DFLR-NH2) | 8 µg/mL (≈ 4.71 µM) | 16 µg/mL (≈ 9.43 µM) | 32 µg/mL (≈ 18.9 µM) | 32 µg/mL (≈ 18.9 µM) | 32 µg/mL (≈ 18.9 µM) | 4 µg/mL (≈ 2.36 µM) | 32 µg/mL (≈ 18.9 µM) | 32 µg/mL (≈ 18.9 µM) | 8 µg/mL (≈ 4.71 µM) | 64 µg/mL (≈ 37.7 µM) | 64 µg/mL
